The values that follow come from ChEMBL document CHEMBL1201862, “PubChem BioAssay data set” (2004).

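Values below derive from 48-hour exposures of cells grown in 96-well plates, with endpoints linearly interpolated between the two concentrations bracketing the appropriate inhibition level. Here, GI50 denotes the concentration required for 50% inhibition of growth.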 The source made the active and inactive calls. Rule as the data show it: active = GI50 up to about 1.1 µM and inactive = higher.

Some test systems named below: SR; OVCAR-4; HOP-92; HCT-15; M14; MDA-MB-435; DU-145; SK-MEL-28; HCC 2998; SN12C; RXF 393; OVCAR-8; EKVX; TK-10; SF-268; MCF7; UO-31; CCRF-CEM; SF-295; MDA-MB-231.
Common to all, as to experiment: inhibition of tumour cell growth, NCI panel, 48 h

Turning to `NC(=O)c1cc(-c2ccc(-n3ccnc3)cc2)nnc1O`, the GI50 with SR is > 100 µM (inactive); with OVCAR-4, > 100 µM (inactive); in the test on HOP-92, > 100 µM (inactive); in the test with HCT-15, more than 100 µM; in the test with M14, > 100 µM (inactive); in the test with MDA-MB-435, > 100 µM (inactive). The GI50 in the test on DU-145, with SK-MEL-28, in the test on HCC 2998, with SN12C, with RXF 393 and in the test on OVCAR-8 was > 100 µM (inactive) throughout. The GI50 in the test on EKVX is > 100 µM (inactive); in the test with TK-10, > 100 µM (inactive); in the test on SF-268, > 100 µM (inactive); in the test with MCF7 it was 67.6 µM (inactive); in the test on UO-31, > 100 µM (inactive); with CCRF-CEM, > 100 µM (inactive).

With `COc1ccc(C2=Nc3ccccc3NC(=O)C2)cc1`, the GI50 in the test on SR was > 100 µM (inactive); in the test on OVCAR-4, > 100 µM (inactive); in the test on HOP-92, 21 µM (inactive); in the test on HCT-15, 51.9 µM; with M14, > 100 µM (inactive); in the test on SK-MEL-28, > 100 µM (inactive). Moreover, the GI50 in the test with HCC 2998 was > 100 µM (inactive); in the test on SF-295, 23.1 µM (inactive); with SN12C, 43.3 µM (inactive); with RXF 393, 22.3 µM (inactive); in the test with OVCAR-8, 40.5 µM (inactive); with EKVX, > 100 µM (inactive). Also, the GI50 was 27.9 µM (inactive) with TK-10, 23.4 µM (inactive) in the test on SF-268, 34.4 µM (inactive) in the test on UO-31 and 41.9 µM (inactive) in the test with CCRF-CEM.

`CCCCCCC1CC(=O)C1(Cl)Cl` (centres undefined): the GI50 with SR was > 10 µM (inactive); in the test on OVCAR-4, 29.1 µM (inactive); with HCT-15, 31 µM; in the test on M14, 26.7 µM (inactive); in the test with DU-145, 26.9 µM (inactive); with SK-MEL-28 it was > 10 µM (inactive). Moreover, the GI50 is 26.3 µM (inactive) in the test on HCC 2998; 33.9 µM (inactive) in the test on SF-295; 29.2 µM (inactive) with SN12C; 23.2 µM (inactive) in the test with OVCAR-8; 59.2 µM (inactive) in the test with EKVX; > 100 µM (inactive) in the test with TK-10. For the same compound, the GI50 in the test on MDA-MB-231 is 30.7 µM (inactive); in the test on SF-268, 20.7 µM (inactive); in the test on MCF7, 26.4 µM (inactive); in the test on UO-31, 19.4 µM (inactive); with CCRF-CEM, 2.4 µM (inactive).

On to `COc1ccc(-c2nnc(-c3c(C)n(C)n(-c4ccccc4)c3=O)o2)cc1`, for which the GI50 with SR is > 100 µM (inactive); in the test with OVCAR-4 it was > 100 µM (inactive); with HOP-92, > 100 µM (inactive); in the test on HCT-15, more than 100 µM; in the test on M14 it was > 100 µM (inactive); with SK-MEL-28 it was > 100 µM (inactive). In addition, the GI50 in the test on HCC 2998, in the test on SF-295, in the test on SN12C, in the test with RXF 393, in the test with OVCAR-8 and with EKVX was > 100 µM (inactive) throughout. The GI50 in the test on TK-10, in the test on SF-268, in the test on UO-31 and in the test with CCRF-CEM was > 100 µM (inactive) throughout.

With `CCOP(=O)(OCC)C1C(CO)OC(n2ccc(=O)[nH]c2=O)C1O` (centres undefined), the GI50 in the test on SR was > 100 µM (inactive); in the test with OVCAR-4, 74.5 µM (inactive); in the test on HOP-92, > 100 µM (inactive); with HCT-15 it was more than 100 µM; with M14, > 100 µM (inactive); in the test on SK-MEL-28, > 100 µM (inactive). The GI50 is 78.7 µM (inactive) in the test with HCC 2998; > 100 µM (inactive) in the test with SF-295; > 100 µM (inactive) with SN12C; > 100 µM (inactive) with RXF 393; > 100 µM (inactive) with OVCAR-8; > 100 µM (inactive) in the test with EKVX. Further, the GI50 with TK-10 was > 100 µM (inactive); with MDA-MB-231, > 100 µM (inactive); in the test on SF-268, > 100 µM (inactive); in the test with UO-31, > 100 µM (inactive); in the test with CCRF-CEM it was > 10 µM (inactive).

As to `O=C(/C=C/c1c(O)ccc2ccccc12)c1ccccc1`, the GI50 with SR is > 100 µM (inactive); in the test with OVCAR-4, > 100 µM (inactive); with HOP-92, > 100 µM (inactive); in the test on HCT-15 it was more than 100 µM; with M14 it was > 100 µM (inactive); with SK-MEL-28 it was > 100 µM (inactive). In addition, the GI50 with HCC 2998, with SF-295, in the test with SN12C, in the test with RXF 393, in the test with OVCAR-8 and with EKVX was > 100 µM (inactive) throughout. For the same compound, the GI50 in the test with TK-10 was > 100 µM (inactive); with SF-268, > 100 µM (inactive); in the test with UO-31, > 100 µM (inactive); in the test with CCRF-CEM, 35.6 µM (inactive).

On to `CC1=Nc2nc3ccccc3n2C(C)(C)C1`, for which the GI50 in the test on SR is > 100 µM (inactive); in the test with OVCAR-4 it was > 100 µM (inactive); in the test with HOP-92 it was > 100 µM (inactive); in the test with HCT-15, more than 100 µM; in the test on M14, > 100 µM (inactive); in the test on MDA-MB-435 it was > 100 µM (inactive). In addition, the GI50 in the test with SF-295, in the test on RXF 393, in the test with OVCAR-8, in the test with EKVX, with TK-10 and with MDA-MB-231 was > 100 µM (inactive) each time. In addition, the GI50 in the test with SF-268, in the test with MCF7, with UO-31 and in the test with CCRF-CEM was > 100 µM (inactive) each time.

For `Cc1ccc(NC(=O)C(=O)C2C(=O)NC(=O)NC2=O)cc1C`, the GI50 in the test with SR was > 100 µM (inactive); in the test on OVCAR-4, > 100 µM (inactive); in the test with HOP-92 it was > 100 µM (inactive); with HCT-15 it was more than 100 µM; with M14, > 100 µM (inactive); with SK-MEL-28, > 100 µM (inactive). Further, the GI50 in the test with HCC 2998, in the test with SF-295, in the test on SN12C, in the test with RXF 393, in the test on OVCAR-8 and in the test with EKVX was > 100 µM (inactive) throughout. Further, the GI50 in the test with TK-10, with SF-268, with UO-31 and with CCRF-CEM was > 100 µM (inactive) each time.

For `Cc1cc(S(=O)(=O)Nc2nc(N)nc(N3CCOCC3)n2)c(SCC(=O)O)cc1Cl`, the GI50 in the test with SR was > 10 µM (inactive); in the test with OVCAR-4, > 10 µM (inactive); with HOP-92, > 10 µM (inactive); in the test on HCT-15, more than 10 µM; in the test on M14, > 10 µM (inactive); with DU-145, > 10 µM (inactive). Also, the GI50 in the test with SK-MEL-28, in the test on HCC 2998, in the test on SF-295, with SN12C, in the test on RXF 393 and in the test on OVCAR-8 was > 10 µM (inactive) throughout. In addition, the GI50 in the test with EKVX, in the test with TK-10, in the test on SF-268, with MCF7, with UO-31 and in the test with CCRF-CEM was > 10 µM (inactive) throughout.

For `COc1cc(COC(=O)NC(Cc2cccs2)C(=O)O)c([N+](=O)[O-])cc1OC` (centres undefined), the GI50 is > 100 µM (inactive) in the test with SR; > 100 µM (inactive) with HOP-92; more than 100 µM with HCT-15; > 100 µM (inactive) with M14; > 100 µM (inactive) with MDA-MB-435; > 100 µM (inactive) in the test on DU-145. For the same compound, the GI50 in the test with SK-MEL-28, with HCC 2998, in the test with SF-295, with SN12C, in the test with RXF 393 and with OVCAR-8 was > 100 µM (inactive) each time. For the same compound, the GI50 in the test on EKVX, in the test with TK-10, in the test on SF-268, in the test with MCF7, in the test with UO-31 and in the test with CCRF-CEM was > 100 µM (inactive) throughout.

For `COc1cc(Nc2cnc3cc(F)c(F)cc3n2)cc(OC)c1`, the GI50 was > 100 µM (inactive) in the test on SR; > 100 µM (inactive) in the test with OVCAR-4; 25.8 µM (inactive) with HOP-92; more than 100 µM in the test with HCT-15; > 100 µM (inactive) with M14; > 100 µM (inactive) with MDA-MB-435. For the same compound, the GI50 with DU-145 was > 100 µM (inactive); in the test on SK-MEL-28 it was > 100 µM (inactive); with SF-295, 36 µM (inactive); in the test with SN12C, > 100 µM (inactive); in the test on RXF 393, 12.2 µM (inactive); in the test with OVCAR-8, > 100 µM (inactive). Besides, the GI50 in the test on EKVX is > 100 µM (inactive); in the test on TK-10 it was > 100 µM (inactive); with SF-268 it was 43.7 µM (inactive); with MCF7, > 100 µM (inactive); in the test on UO-31 it was > 100 µM (inactive); in the test with CCRF-CEM it was > 100 µM (inactive).

Regarding `Cc1cc2nc3c(C#N)c4c(c(Cl)n3c2cc1C)CCC4`, the GI50 in the test on OVCAR-4 is 43 µM (inactive); in the test with HOP-92, 31.8 µM (inactive); with HCT-15, 17.6 µM; in the test with MDA-MB-435 it was 19.3 µM (inactive); with SK-MEL-28, 29.2 µM (inactive); with SF-295, > 100 µM (inactive). Also, the GI50 in the test with SN12C was 18.6 µM (inactive); in the test with RXF 393, 16.6 µM (inactive); in the test with OVCAR-8, 20.2 µM (inactive); in the test on EKVX it was 61.1 µM (inactive); with TK-10 it was 24.7 µM (inactive); with MDA-MB-231 it was 15.9 µM (inactive). Besides, in the test on SF-268, the GI50 is 23.9 µM (inactive).
